Experimental data: patent US5264565A, “Nucleic acid encoding the D2 /Ml chimeric receptor” (Affymax Technologies, N.V., priority 1991, dated 1993)

How the values were obtained:
D2 /ml receptor = experiment: Competition binding assay with [3H]-spiperone, D2/ml chimeric receptor; set-up: species or system human; conditions: for Ki: D2/ml Receptor, 0.5 nM [3H]-spiperone, anti-log of mean log Ki, three experiments, Cheng-Prusoff
Description: (§1) Cells were detached from culture flasks with EDTA, pelleted at 1,000×g and resuspended in 1× binding buffer (100 mM Tris; 120 mM NaCl; 5 mM KCl; 1 mM MgCl2; 2 mM CaCl2; 1.1 mM ascorbic acid; pH 7.4) at ~1×10^6 cells/ml. Cells were homogenized with a Polytron (Brinkman) and the crude membrane fraction was pelleted at 17,000× g for 10 min. […] Triplicate binding reactions were done in IX binding buffer for 30 min. at 37°, then stopped by filtration through glass-fiber filters (Skatron) that were pre-soaked in 0.1% polyethyleneimine, followed by a 5 sec. wash with ice cold 0.1× binding buffer. […] Competing ligands were all from Research Biochemicals Inc.

D2 /ml chimeric receptor = conditions: dopamine 0.1-1000 μM, CHO cells expressing D2/ml receptor (FIG. 3B)
[1] = system: non-transfected CHO cells; experiment: [Ca+2]i assay (Fura-2) in non-transfected CHO cells
D2(414) receptor [2] = molecular target: T1, D2(414) receptor (Homo sapiens, UniProt P14416); conditions: dopamine 100 μM, CHO cells expressing D2(414) receptor (FIG. 3A)
D2(414) receptor [3] = molecular target: T1, D2(414) receptor; experiment: Competition binding assay with [3H]-spiperone, D2(414) receptor; set-up: expressed in transfected cells
Description: as §1

CHO cells = experiment: Radioligand specific binding in non-transfected CHO cells; set-up: species or system Chinese hamster; conditions: preliminary studies
Description: Cells were detached from culture flasks with EDTA, pelleted at 1,000×g and resuspended in 1× binding buffer (100 mM Tris; 120 mM NaCl; 5 mM KCl; 1 mM MgCl2; 2 mM CaCl2; 1.1 mM ascorbic acid; pH 7.4) at ~1×10^6 cells/ml. Cells were homogenized with a Polytron (Brinkman) and the crude membrane fraction was pelleted at 17,000× g for 10 min. […] Triplicate binding reactions were done in IX binding buffer for 30 min. at 37°, then stopped by filtration through glass-fiber filters (Skatron) that were pre-soaked in 0.1% polyethyleneimine, followed by a 5 sec. wash with ice cold 0.1× binding buffer.

T1 sequence (P14416 1-414 isoform P14416-2): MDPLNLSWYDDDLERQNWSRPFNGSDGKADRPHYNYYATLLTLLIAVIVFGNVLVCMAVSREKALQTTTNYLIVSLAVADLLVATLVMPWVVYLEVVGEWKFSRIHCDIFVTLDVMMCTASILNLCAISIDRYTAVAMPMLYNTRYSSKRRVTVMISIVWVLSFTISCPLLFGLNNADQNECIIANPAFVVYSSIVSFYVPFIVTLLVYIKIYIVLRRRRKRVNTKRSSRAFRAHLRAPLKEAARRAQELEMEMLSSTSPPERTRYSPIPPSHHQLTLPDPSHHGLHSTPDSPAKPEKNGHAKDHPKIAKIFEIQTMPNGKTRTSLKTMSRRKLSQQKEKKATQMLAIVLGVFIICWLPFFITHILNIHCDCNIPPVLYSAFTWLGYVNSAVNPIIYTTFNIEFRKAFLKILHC

For `CCN1CCC[C@H]1CNC(=O)c1cc(S(N)(=O)=O)ccc1OC` [(-) Sulpiride], the Ki (D2 /ml receptor) was 45 nM.
`NCCc1ccc(O)c(O)c1` [Dopamine] was tested, and the “[Ca+2]i response” value (D2 /ml chimeric receptor) was “elevated in a dose dependent manner”, the “[Ca+2]i” value ([1]; dopamine 1 mM) was “unaltered” and the Ki (D2 /ml receptor) was 2100 nM. For the same compound, the “[Ca+2]i” value (D2(414) receptor [2]) was “failed to alter”.
`CCCN(CCc1ccccc1)C1CCc2c(O)cccc2C1` (stereo not drawn) [N-0434] gave a Ki (D2 /ml receptor) of 27 nM.
In the case of `CN1CCc2cc(Cl)c(O)cc2[C@@H](c2ccccc2)C1` [SCH-23390], the Ki (D2 /ml receptor) is reported as 3600 nM, the “Difference in Ki between D2(414) and D2/ml receptor” value (D2 /ml receptor; comparison of Ki at the two receptors, t-test) is reported as “small” and the Ki (D2(414) receptor [3]) is reported as 2100 nM.
For `Oc1cc2c(cc1O)C(c1ccccc1)CNCC2` (stereo not drawn) [SKF-38393], the Ki (D2 /ml receptor) was 36000 nM.
`O=C(CCCN1CCC2(CC1)C(=O)NCN2c1ccccc1)c1ccc(F)cc1` [[^3 H]-spiperone] was tested, and the Specific binding (CHO cells) was “no detectable specific binding”.
In the case of `C[N+](C)(C)CCOC(N)=O` [carbachol], the “[Ca+2]i” value ([1]; carbachol 100 μM) is reported as “unaltered”.
